Test results published in US9000190B2, “Amide compound or salt thereof, biofilm inhibitor, biofilm remover and disinfectant containing the same” (The University of Tokyo, priority 2006, dated 2015).

Legend:
[1] = test system: Porphyromonas gingivalis 381-strain; experiment: Evaluation test for biofilm formation inhibition effect against periodontitis pathogenic bacteria (flow cell, HA disks, turbidity); format: cell-based; conditions: for Mean OD Value / inhibition of biofilm formation caused by periodontitis pathogenic bacteria (conclusion in words): 100 μM; for Mean OD Value: turbidity of suspended biofilm at 550 nm; for inhibition of biofilm formation caused by periodontitis pathogenic bacteria (conclusion in words): 14 days
Experimental: As with Experiment Example 1, using the flow cell system of FIG. 1, an inhibitory effect against biofilm formation by periodontitis pathogenic bacteria was evaluated for each of the amide compounds produced in Production Examples 1, 3, 5, and 6 (Compounds 1a-1, 1b-1, 1c-1, 1c-2).
Periodontitis pathogenic bacteria Porphyromonas gingivalis 381-strain (clinical strain) was used.
A GAM culture medium containing hemin 5 μg/L and menadione 1 μg/L was used.
The 381-strain was inoculated in the GAM culture medium, and cultivated until stationary phase (OD550=1.8). Then the culture medium was diluted 20-fold by a fresh GAM culture medium containing the above-mentioned substances.
The test liquid was prepared by dissolving 100 μM of each of the Compounds 1a-1, 1b-1, 1c-1, or 1c-2 according to Production Examples 1, 3, 5 and 6 and 100 μM of Comparative Compounds 1 and 2 as comparative examples in dimethyl sulfoxide (DMSO), and supplying the resulting DMSO solutions to the above-mentioned bacterial suspensions so that the concentration of each compound becomes 0.1%(v/v).
(§1) A DMSO not containing the compound was used as a control test liquid.
The glass cell (4) of the flow cell system (see FIG. 1) was replaced with a stainless cell (3×7×120 mm), and 10 hydroxyapatite (HA) disks (6 mm in diameter, 1 mm in thickness) were placed in the cell. The HA disks had been subjected to salivary treatment overnight. Each of the test liquids and control test liquids was circulated in the system at a flow rate of 8 mL/min for 14 days. Note that the test liquids and the control test liquids were replaced with fresh liquids every two days.
After the cultivation, the HA disks were dipped in 300 μL of sterile distilled water, and treated by supersonic wave for 30 minutes at 4° C. The biofilms formed in the HA disks were peeled off and suspended in distilled water. Then, 100 μL of the suspension liquid was measured for the turbidity with an absorptiometer (C07500 colorimeter, product of Funakoshi) (measurement wavelength=550 nm).
A mean OD was found based on the resulting OD values, excluding the minimum and maximum values. Also, a mean value of the turbidities for the Control Test Liquids was found in the same manner as the control mean OD value. A biofilm formation inhibition rate (Inhibition Rate) was found by the following formula. Biofilm Formation Inhibition Rate (%)={(Mean OD Value)/(Mean Comparison OD Value)}×100

[2] = test system: Pseudomonas aeruginosa (gfp expression PAO1-strain); experiment: Evaluation test for biofilm formation inhibition effect against Pseudomonas aeruginosa (flow cell system); format: cell-based; conditions: flow 200 μL per minute, observed after 1, 48, 60, 72, 84 hours
Experimental: With the flow cell system shown in FIG. 1, an inhibitory effect against biofilm formation by Pseudomonas aeruginosa was evaluated for each of the amide compounds produced in Production Examples 1, 3, 5, 6 and 7 (Compounds 1a-1, 1b-1, 1c-1, 1c-2, 1d-1), and for each of Comparative Compounds (Comparative Example) 1 to 3 denoted by the following formulas.
A culture medium bottle (1), a peristaltic pump (2), a glass cell (4) and a waste fluid bottle (5) are connected via a silicon tube (6) so that a culture medium (9) is supplied to the glass cell (4) from the culture medium bottle (1) using the peristaltic pump (2). The system includes an air removal section (3) between the peristaltic pump (2) and a turncock (7a), for removing the entrained air. All instruments in the flow cell system are sterilized using gamma-rays or an autoclave.
As specifically described later, the inhibitory effect against biofilm formation of each of the amide compounds is examined in the following manner. Bacteria are cultured in a glass cell (4) to grow a biofilm on the inner wall of the cell, and a test liquid containing one of the amide compounds is applied to the biofilm. Then the state of the biofilm is observed to evaluate the inhibitory effect against biofilm formation of the compound using a fluorescence confocal microscope (Leica TCS SP2: product of Leica).
The bacteria was prepared by inserting a pTdk-LVAgfp plasmid into a Pseudomonas aeruginosa PAO1-strain using the electroportion method so that the Pseudomonas aeruginosa PAO1-strain is transformed to express Green Fluorescent Protein (hereinafter referred to as “gfp expression PAO1-strain”) (see Teresa R. et al., Applied and Environmental Microbiology, April 2001, p. 1865-1873).
A 30 mM glucose-containing FAB culture medium was used for preincubation, and a 0.3 mM glucose-containing FAB culture medium was used for main cultivation.
The glucose-containing FAB culture medium was prepared by adding 200 μg/mL of carbenicillin to an aqueous solution containing 30 mM glucose or 0.3 mM glucose, 15 mM ammonium sulfate, 33.7 mM disodium hydrogenphosphate dihydrate, 22.1 mM potassium dihydrogen phosphate, 51.7 mM sodium chloride, 0.47 mM magnesium chloride, 0.08 mM calcium chloride and the following 0.1% trace metal solution.
An aqueous solution containing 1.16 mM calcium sulfate dihydrate, 0.72 mM iron sulfate heptahydrate, 0.08 mM manganous sulfate monohydrate, 0.08 mM copper sulfate pentahydrate, 0.07 mM zinc sulfate heptahydrate, 0.04 mM cobalt sulfate heptahydrate, 0.04 mM […], and 0.08 mM boric acid.
A gfp expression PAO1-strain was inoculated in a 30 mM glucose-containing FAB culture medium, and was subjected to shake culture at 37° C. in an isothermal tank overnight. The obtained overnight culture liquid was diluted by a 30 mM glucose-containing FAB culture medium to OD590=0.1.
(§2) The test liquid was prepared by dissolving 100-250 μM of each of the Compounds 1a-1, 1b-1, 1c-1, 1c-2, or 1d-1 according to Production Examples 1, 3 and 5 to 7 and 100-250 μM of Comparative Compounds 1 to 3 as comparative examples in dimethyl sulfoxide (DMSO), and supplying the resulting DMSO solutions to a 0.3 mM glucose-containing FAB culture medium so that the concentration of each compound becomes 0.1%(v/v).
as §1
The flow cell system was filled with hydrous ethanol of 70 volume %, and was allowed to stand for at least 12 hours to sterilize the system. Then, air having been filtrated by a membrane filter (8a) was supplied into the flow cell system using the peristaltic pump (2) to dry the system. Thereafter, the system was filled with a 0.3 mM glucose-containing FAB culture medium. 500 μL of a bacterial suspension was injected into the glass cell (4) from the upper surface, and the glass cell was sealed by turning off the three-way turncock (7a,7b). The cell as such was allowed to stand for 1 hour at room temperature. […]

[3] = test system: Pseudomonas aeruginosa (gfp expression PAO1-strain); experiment: Evaluation test for biofilm removal effect with respect to Pseudomonas aeruginosa (flow cell system); format: cell-based; conditions: test liquid 100 μM; for state of biofilm removal (disappearance of deposited biofilm, fluorescence confocal microscope): observed after 3, 4, 5, 6, 7 and 10 days; for time course of biofilm during removal test: up to 10 days
Experimental: With the flow cell system of FIG. 1, a removal effect against biofilms formed by Pseudomonas aeruginosa was evaluated for each of the amide compounds produced in Production Examples 1, 3, 5, and 6 (Compounds 1a-1, 1b-1, 1c-1, 1c-2), and for Comparative Compounds 1 to 3 as comparative examples.
The evaluation for biofilm removal effect was performed as follows. After cultivation of bacterias in the glass cell (4) of the flow cell system to grow a biofilm in the inner cell wall, a test liquid containing one of the amide compounds was applied to the biofilm.
As with Experiment Example 1, a gfp expression PAO1-strain was used.
At for the culture medium, the glucose-containing FAB culture medium, trace metal solution, and bacterial suspension as those of Experiment Example 1 were used.
as §2, with “dissolving 100” for “dissolving 100-250”, “1b-1, 1c-1 and 1c-2” for “1b-1, 1c-1, 1c-2, or 1d-1”, “1, 3, 5” for “1, 3”, “and 6” for “and 5 to 7”, “and 100” for “and 100-250”, “examples denoted by the following formula” for “examples”
as §1
The flow cell system was filled with hydrous ethanol (70 volume %), and was allowed to stand for at least 12 hours to sterilize the system. Then, air having been filtrated by a membrane filter (8a) was supplied into the flow cell system using the peristaltic pump (2) to dry the system. Thereafter, the system was filled with a 0.3 mM glucose-containing FAB culture medium. 500 μL of the bacterial suspension was injected into the glass cell (4) from the upper surface, and the glass cell was sealed by turning off the three-way turncock (7a,7b). The cell as such was allowed to stand for an hour at room temperature.
After the static culture, two of the three-way turncocks (7a,7b) were turned on, so as to supply each test liquid and control test liquid at a flow rate of 200 μL per minute. With a fluorescence confocal microscope, the process of biofilm formation (deposition) by the Pseudomonas aeruginosa (gfp expression PAO1-strain) adhered to the inner wall of the glass cell was observed three-dimensionally from above to observe changes over time (after 3 days, 4 days, 5 days, 6 days, 7 days, and 10 days). Note that the test liquid and the control test liquid were replaced with fresh liquids every 36 hours.

S. aureus ATCC 29213 = conditions: Publicly-known data; cited from earlier work
E. coli ATCC 25922 = conditions: Publicly-known data; cited from earlier work
P. aeruginosa ATCC 27853 = conditions: Publicly-known data; cited from earlier work

Row | SMILES | state of biofilm formation (fluorescence confocal microscope) compared with control test liquid ([2]; test liquid 100 μM) | inhibition of biofilm formation caused by periodontitis pathogenic bacteria (conclusion in words) [1] | state of biofilm removal (disappearance of deposited biofilm, fluorescence confocal microscope) [3] | other results
1 | CCCC(=O)NN1CCCC1 [Comparative Compound 2, reference compound] | the huge, thick biofilm was observed as in the control test |  |  | Mean OD Value ([1]; HA disks, circulated 14 days): 0.719; inhibition at 100 µM ([1]; Porphyromonas gingivalis, 381STRAIN, 336 h, HA disks, circulated 14 days, relative to control test liquid (DMSO), read-out: Biofilm Formation Inhibition Rate (%)): -49%
2 | CCCCCCCCCCCC(=O)NN1CCCC1 [Compound 1c-1, N-(pyrrolidin-1-yl) dodecanoyl amide] | such biofilm formation was not observed | capable of inhibiting biofilm formation | the gradual disappearance of the deposited biofilm with time was observed | time course of biofilm during removal test [3]: the biofilm was first reduced and then increased again after a six-day cultivation, before it reduced again until it disappeared
3 | CCCCCCCCCCCC(=O)NN1CCCCC1 [Compound 1d-1, N-(piperidine-1-yl) dodecanoyl amide] | such biofilm formation was not observed |  |  | 
4 | CCCCCCCCCC(=O)CC(=O)Nc1ccccc1O [Comparative Compound 1, reference compound] | the huge, thick biofilm was observed as in the control test |  |  | Mean OD Value ([1]; HA disks, circulated 14 days): 0.629
5 | CC(C)(O/N=C(\C(=O)N[C@@H]1C(=O)N2C(C(=O)[O-])=C(C[n+]3ccccc3)CS[C@H]12)c1csc(N)n1)C(=O)O [CAZ, Ceftazidime] |  |  |  | MIC (μg/mL) from M100-S16 (S. aureus ATCC 29213): 4 to 16 µg/mL; MIC (μg/mL) from M100-S16 (E. coli ATCC 25922): 0.06 to 0.5 µg/mL; MIC (μg/mL) from M100-S16 (P. aeruginosa ATCC 27853): 1 to 4 µg/mL
6 | CCCCCCCCCCCC(=O)NC1CCNCC1 [Compound 1b-1, N-(piperidine-4-yl) dodecanoyl amide] |  | capable of inhibiting biofilm formation | the gradual disappearance of the deposited biofilm with time was observed | state of biofilm formation (fluorescence confocal microscope) compared with control test liquid ([2]; test liquid 250 μM): such biofilm formation was not observed
7 | CCCCCCCCCCCC(=O)NC1CCNC1 (stereo not shown) [Compound 1a-1, N-(pyrrolidin-3-yl) dodecanoyl amide] |  | capable of inhibiting biofilm formation | the gradual disappearance of the deposited biofilm with time was observed | state of biofilm formation (fluorescence confocal microscope) compared with control test liquid ([2]; test liquid 250 μM): such biofilm formation was not observed
8 | CCCCCCCCCC(O)CC(=O)NN1CCCC1 (stereo not shown) [Compound 1c-2, N-(pyrrolidin-1-yl)-3-hydroxy dodecanoyl amide] | such biofilm formation was not observed | capable of inhibiting biofilm formation | the gradual disappearance of the deposited biofilm with time was observed | time course of biofilm during removal test [3]: the biofilm was first reduced and then increased again after a six-day cultivation, before it reduced again until it disappeared
9 | CC[C@H]1OC(=O)[C@H](C)[C@@H](O[C@H]2C[C@@](C)(OC)[C@@H](O)[C@H](C)O2)[C@H](C)[C@@H](O[C@@H]2O[C@H](C)C[C@H](N(C)C)[C@H]2O)[C@](C)(O)C[C@@H](C)CN(C)[C@H](C)[C@@H](O)[C@]1(C)O [AZM, Azithromycin] |  |  |  | MIC (μg/mL) from M100-S16 (S. aureus ATCC 29213): 0.5 to 2 µg/mL
10 | NC[C@H]1O[C@H](O[C@H]2[C@H](O)[C@@H](O[C@H]3O[C@H](CO)[C@@H](O)[C@H](N)[C@H]3O)[C@H](N)C[C@@H]2N)[C@H](N)C[C@@H]1O [TOB, Tobramycin] |  |  |  | MIC (μg/mL) from M100-S16 (S. aureus ATCC 29213): 0.12 to 1 µg/mL; MIC (μg/mL) from M100-S16 (E. coli ATCC 25922): 0.25 to 1 µg/mL; MIC (μg/mL) from M100-S16 (P. aeruginosa ATCC 27853): 0.25 to 1 µg/mL
11 | CCCC(=O)NN1CCCCC1 [Comparative Compound 3, reference compound] | the huge, thick biofilm was observed as in the control test |  |  | 
